Reference: patent US10442796B2, “2,3,5-substituted thiophene compound as protein kinase inhibitor” (KOREA INSTITUTE OF SCIENCE AND TECHNOLOGY, priority 2016, dated 2019)
Numbering of substitutions follows the chain as printed. Structures can show the parent of a compound that is named as a salt.

Key:
FLT3-D835Y Ba/F3 cells = biological target: T1, FLT3-D835Y Ba/F3 cells (Homo sapiens, UniProt P36888, D835Y, cells depend on it); assay: Growth inhibitory activity against Ba/F3 cell line; assay type: cell-based; conditions: Ba/F3 expressing FLT3-D835Y; 72 hours; cell titer glo; read-out: IC50 (uM) FLT3-D835Y
T1 sequence (P36888 1-993 D835Y): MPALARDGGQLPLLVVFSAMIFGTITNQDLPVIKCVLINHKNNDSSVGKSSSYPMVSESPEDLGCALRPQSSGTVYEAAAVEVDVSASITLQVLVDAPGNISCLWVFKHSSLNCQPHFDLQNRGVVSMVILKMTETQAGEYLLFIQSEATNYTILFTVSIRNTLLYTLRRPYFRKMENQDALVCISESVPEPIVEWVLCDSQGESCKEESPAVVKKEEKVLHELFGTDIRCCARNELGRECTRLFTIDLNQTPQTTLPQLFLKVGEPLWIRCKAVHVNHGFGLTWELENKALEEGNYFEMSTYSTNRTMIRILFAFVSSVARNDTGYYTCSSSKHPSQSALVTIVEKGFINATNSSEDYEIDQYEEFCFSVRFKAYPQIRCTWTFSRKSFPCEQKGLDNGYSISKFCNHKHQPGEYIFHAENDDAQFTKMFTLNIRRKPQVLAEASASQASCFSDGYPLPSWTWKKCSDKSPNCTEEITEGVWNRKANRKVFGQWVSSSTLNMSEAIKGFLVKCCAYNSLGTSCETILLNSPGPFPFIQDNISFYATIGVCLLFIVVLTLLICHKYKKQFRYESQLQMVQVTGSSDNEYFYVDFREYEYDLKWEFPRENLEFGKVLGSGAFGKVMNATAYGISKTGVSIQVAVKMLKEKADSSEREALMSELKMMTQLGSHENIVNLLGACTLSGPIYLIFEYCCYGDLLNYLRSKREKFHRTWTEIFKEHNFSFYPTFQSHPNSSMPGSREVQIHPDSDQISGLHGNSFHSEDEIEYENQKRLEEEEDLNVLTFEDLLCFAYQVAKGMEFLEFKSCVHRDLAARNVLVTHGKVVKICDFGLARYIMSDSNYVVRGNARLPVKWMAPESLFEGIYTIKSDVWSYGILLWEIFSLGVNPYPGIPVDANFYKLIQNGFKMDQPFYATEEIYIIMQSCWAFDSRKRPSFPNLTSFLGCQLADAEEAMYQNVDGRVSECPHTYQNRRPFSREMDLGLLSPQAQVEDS
How it was run: (§1)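 Ba/F3 cells carrying FLT3 mutants grown in RPMI with 10% FBS, exposed 72 h to ten 3-fold dilutions of compound starting from 1 mM DMSO stock. Viability read by CellTiter-Glo luminescence; GI50 fitted from signal versus final concentration.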

[1] = biological target: T2, FLT3-ITD-F691L Ba/F3 cells (Homo sapiens, UniProt P36888, F691L, cells depend on it, form not given); assay: Growth inhibitory activity against Ba/F3 cell line; assay type: cell-based; conditions: Ba/F3 expressing FLT3-ITD-F691L; 72 hours; cell titer glo; read-out: IC50 (uM) FLT3-ITD-F691L
T2 sequence (P36888 1-993 F691L): T1 sequence (P36888 1-993 D835Y) with F691L, Y835D
How it was run: as §1

[2] = Body weight change during bioluminescent in vivo efficacy study; parameters: species or system mouse; conditions: po, qd
Method: Each compound was dissolved in NMP at 20× final concentration and diluted to 1× with the remaining vehicle components (vehicle: 5% NMP, 15% solutol (Sigma-aldrich), 30% PEG400 (Sigma-aldrich), 50% 0.05M citric acid (Sigma-aldrich)). Each compound solution was prepared freshly just before administration. Compounds were administered orally using a mouse sondae once a day, 0.1 mL per mouse. Mice were humanely euthanized if animals experience 20% body weight loss.
D-Luciferin (Promega) was dissolved in DPBS (Welgene) (without Ca2+ and Mg2+) at 15 mg/mL, and the stock solution was prepared after filtration using 0.22 μm syringe filters (BD). Luciferin solution (150 mg/kg in DPBS) was injected intraperitoneally into each mouse (200 μL/mouse). After 5 min, mice were anesthetized for 5 min using isoflurane (JW Pharma). Luminescence signal was read using IVIS200 (exposure time: auto, binning: 8, F/stop: 1). Signal intensity and body weights were measured every 3 days to monitor the ROI intensity and treatment-induced body weight loss. […] Data was analyzed using Living Image software (Caliper, PerkinElmer).
Statistical analysis of luminescence signal intensity, mouse body weight, and spleen/body weight ratio were evaluated using two-way ANOVA. Differences were considered statistically significant at p<0.005.

| Compound | GI50 (FLT3-D835Y Ba/F3 cells) | GI50 [1] | mouse body weight [2] |
| --- | --- | --- | --- |
| NC(=O)Nc1cc(CCc2cccc(F)c2)sc1C(=O)N[C@H]1CCCCNC1 [Example 54, (S)—N-(azepan-3-yl)-5-(3-fluorophenethyl)-3-ureidothiophene-2-carboxamide] | 11.5 µM | 7.47 µM |  |
| NC(=O)Nc1cc(C#Cc2ccc([N+](=O)[O-])cc2)sc1C(=O)N[C@H]1CCCNC1 [Example 7, (S)-5-((4-nitrophenyl)ethynyl)-N-(piperidin-3-yl)-3-ureidothiophene-2-carboxamide] | 0.07 µM | 0.089 µM |  |
| NC(=O)Nc1cc(C#Cc2cn[nH]c2)sc1C(=O)N[C@H]1CCCCNC1 [Example 42, (S)-5-((1H-pyrazol-4-yl)ethynyl)-N-(azepan-3-yl)-3-ureidothiophene-2-carboxamide trifluoroacetate] | 4.01 µM | 5.23 µM |  |
| CS(=O)(=O)N1CCC(n2cc(C#Cc3cc(NC(N)=O)c(C(=O)N[C@H]4CCCNC4)s3)cn2)CC1 [Example 23, (S)-5-((1-(1-(methylsulfonyl)piperidin-4-yl)-1H-pyrazol-4-yl)ethynyl)-N-(piperidin-3-yl)-3-ureidothiophene-2-carboxamide] | 0.18 µM | 0.267 µM |  |
| Cn1cc(CCc2cc(NC(N)=O)c(C(=O)N[C@H]3CCCCNC3)s2)cn1 [Example 52, (S)—N-(azepan-3-yl)-5-(2-(1-methyl-1H-pyrazol-4-yl)ethyl)-3-ureidothiophene-2-carboxamide trifluoroacetate] | > 33 µM | > 100 µM |  |
| COCCn1cc(C#Cc2cc(NC(N)=O)c(C(=O)N[C@H]3CCCCNC3)s2)cn1 [Example 45, (S)—N-(azepan-3-yl)-5-((1-(2-methoxyethyl)-1H-pyrazol-4-yl)ethynyl)-3-ureidothiophene-2-carboxamide trifluoroacetate] | 0.841 µM | 1.34 µM |  |
| NC(=O)Nc1cc(C#Cc2cccc(F)c2)sc1C(=O)NC1CCNC1 (stereo not drawn) [Example 40, 5-((3-fluorophenyl)ethynyl)-N-(pyrrolidin-3-yl)-3-ureidothiophene-2-carboxamide] | 0.925 µM | 0.848 µM |  |
| NC(=O)Nc1cc(C#Cc2cccc(F)c2)sc1C(=O)N[C@H]1CCCNC1 [Example 22, (S)-5-((3-fluorophenyl)ethynyl)-N-(piperidin-3-yl)-3-ureidothiophene-2-carboxamide] | 0.052 µM | 0.032 µM | did not alter the mouse body weight |

The remaining compounds from weak to strong by GI50 (FLT3-D835Y Ba/F3 cells), led by results:

| GI50 (FLT3-D835Y Ba/F3 cells) | GI50 [1] | Compound | mouse body weight [2] |
| --- | --- | --- | --- |
| 0.064 µM | 0.069 µM | NC(=O)Nc1cc(C#Cc2ccc(C(F)(F)F)nc2)sc1C(=O)N[C@H]1CCCNC1 [Example 17, (S)—N-(piperidin-3-yl)-5-((6-(trifluoromethyl)pyridin-3-yl)ethynyl)-3-ureidothiophene-2-carboxamide] |  |
| 0.042 µM | 0.075 µM | NC(=O)Nc1cc(C#Cc2cnn(C3CCOCC3)c2)sc1C(=O)N[C@H]1CCCCNC1 [Example 46, (S)—N-(azepan-3-yl)-5-((1-(tetrahydro-2H-pyran-4-yl)-1H-pyrazol-4-yl)ethynyl)-3-ureidothiophene-2-carboxamide trifluoroacetate] |  |
| 0.041 µM | 0.055 µM | N#Cc1cccc(C#Cc2cc(NC(N)=O)c(C(=O)N[C@H]3CCCNC3)s2)c1 [Example 6, (S)-5-((3-cyanophenyl)ethynyl)-N-(piperidin-3-yl)-3-ureidothiophene-2-carboxamide] |  |
| 0.003 µM | 0.005 µM | NC(=O)Nc1cc(C#Cc2ccc(F)cc2)sc1C(=O)N[C@H]1CCCNC1 [Example 9, (S)-5-((4-fluorophenyl)ethynyl)-N-(piperidin-3-yl)-3-ureidothiophene-2-carboxamide] |  |
| 0.003 µM | 0.004 µM | N#Cc1ccc(C#Cc2cc(NC(N)=O)c(C(=O)N[C@H]3CCCNC3)s2)cc1 [Example 11, (S)-5-((4-cyanophenyl)ethynyl)-N-(piperidin-3-yl)-3-ureidothiophene-2-carboxamide] |  |
